Assays:
[1] = molecular target: T1, CYP2C19 (Homo sapiens, UniProt P33261); assay: In-vitro biological degradation by cytochrome P450 enzymes: CYP2C19; assay type: in vitro ADME
T1 construct: expressed in transfected cells; host or cells: cell line named only by the CYP it carries

[2] = molecular target: T2, CYP2D6 (Homo sapiens, UniProt P10635); assay: In-vitro biological degradation by cytochrome P450 enzymes: CYP2D6; assay type: in vitro ADME
T2 construct: expressed in transfected cells; host or cells: cell line named only by the CYP it carries

[3] = molecular target: T3, CYP1A1 (Homo sapiens, UniProt P04798); assay: In-vitro biological degradation by cytochrome P450 enzymes: CYP1A1; assay type: in vitro ADME; conditions: 37° C., pH 7.4, 3 mM NADPH, protein 0.5 mg/mL; FIG. 1
T3 construct: expressed in transfected cells; host or cells: cell line named only by the CYP it carries
T3 sequence (P04798 1-512): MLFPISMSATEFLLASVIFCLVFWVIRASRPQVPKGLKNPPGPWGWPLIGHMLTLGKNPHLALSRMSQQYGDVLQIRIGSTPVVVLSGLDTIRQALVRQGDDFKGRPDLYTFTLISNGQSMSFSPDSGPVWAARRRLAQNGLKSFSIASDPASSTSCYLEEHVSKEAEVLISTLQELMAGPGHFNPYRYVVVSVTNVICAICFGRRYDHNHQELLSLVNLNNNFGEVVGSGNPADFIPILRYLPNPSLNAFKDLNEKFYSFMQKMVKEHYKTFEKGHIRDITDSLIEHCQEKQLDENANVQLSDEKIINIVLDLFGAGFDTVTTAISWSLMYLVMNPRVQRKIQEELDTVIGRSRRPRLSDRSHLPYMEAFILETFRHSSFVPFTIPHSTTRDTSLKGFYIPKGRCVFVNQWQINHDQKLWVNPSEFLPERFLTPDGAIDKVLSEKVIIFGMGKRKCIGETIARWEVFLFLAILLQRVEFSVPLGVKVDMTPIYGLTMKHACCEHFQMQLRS

[4] = molecular target: T4, CYP1A2 (Homo sapiens, UniProt P05177); assay: In-vitro biological degradation by cytochrome P450 enzymes: CYP1A2; assay type: in vitro ADME; conditions: 37° C., pH 7.4, 3 mM NADPH, protein 0.5 mg/mL; FIG. 1
T4 construct: expressed in transfected cells; host or cells: cell line named only by the CYP it carries
T4 sequence (P05177 1-516): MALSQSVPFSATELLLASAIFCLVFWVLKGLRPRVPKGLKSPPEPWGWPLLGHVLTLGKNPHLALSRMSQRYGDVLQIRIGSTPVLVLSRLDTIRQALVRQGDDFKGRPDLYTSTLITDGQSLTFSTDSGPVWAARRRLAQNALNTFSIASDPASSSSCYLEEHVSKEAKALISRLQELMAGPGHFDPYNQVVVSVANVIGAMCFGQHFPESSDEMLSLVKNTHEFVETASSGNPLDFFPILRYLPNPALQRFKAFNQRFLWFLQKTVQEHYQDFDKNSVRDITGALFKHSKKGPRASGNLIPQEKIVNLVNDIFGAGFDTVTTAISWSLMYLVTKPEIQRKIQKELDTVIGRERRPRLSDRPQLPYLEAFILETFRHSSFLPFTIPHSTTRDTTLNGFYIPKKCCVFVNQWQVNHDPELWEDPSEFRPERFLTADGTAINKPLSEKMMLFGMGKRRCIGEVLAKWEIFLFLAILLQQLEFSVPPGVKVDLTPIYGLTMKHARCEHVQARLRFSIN

[5] = molecular target: T5, CYP2C8 (Homo sapiens, UniProt P10632); assay: In-vitro biological degradation by cytochrome P450 enzymes: CYP2C8; assay type: in vitro ADME; conditions: 37° C., pH 7.4, 3 mM NADPH, protein 0.5 mg/mL; FIG. 1
T5 construct: expressed in transfected cells; host or cells: cell line named only by the CYP it carries
T5 sequence (P10632 1-490): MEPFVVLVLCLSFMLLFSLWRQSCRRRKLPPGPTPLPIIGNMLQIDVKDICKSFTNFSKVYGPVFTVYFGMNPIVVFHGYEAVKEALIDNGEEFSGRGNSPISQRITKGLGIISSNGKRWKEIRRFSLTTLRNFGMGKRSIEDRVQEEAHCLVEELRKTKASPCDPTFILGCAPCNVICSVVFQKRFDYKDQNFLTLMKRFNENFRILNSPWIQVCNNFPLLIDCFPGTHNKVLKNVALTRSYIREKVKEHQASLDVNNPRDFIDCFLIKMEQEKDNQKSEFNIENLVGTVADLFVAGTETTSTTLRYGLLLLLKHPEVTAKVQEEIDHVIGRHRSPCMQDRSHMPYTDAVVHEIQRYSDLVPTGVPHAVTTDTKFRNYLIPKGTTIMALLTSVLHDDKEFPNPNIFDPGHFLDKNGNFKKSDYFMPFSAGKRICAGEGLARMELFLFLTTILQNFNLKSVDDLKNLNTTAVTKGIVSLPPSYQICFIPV

[6] = molecular target: T6, CYP2E1 (Homo sapiens, UniProt P05181); assay: In-vitro biological degradation by cytochrome P450 enzymes: CYP2E1; assay type: in vitro ADME; conditions: 37° C., pH 7.4, 3 mM NADPH, protein 0.5 mg/mL; FIG. 1
T6 construct: expressed in transfected cells; host or cells: cell line named only by the CYP it carries

[7] = molecular target: T7, CYP3A4 (Homo sapiens, UniProt P08684); assay: In-vitro biological degradation by cytochrome P450 enzymes: CYP3A4; assay type: in vitro ADME; conditions: 37° C., pH 7.4, 3 mM NADPH, protein 0.5 mg/mL; FIG. 1
T7 construct: expressed in transfected cells; host or cells: cell line named only by the CYP it carries

[8] = strong first-pass effect; background statement; cited from earlier work
[9] = relative to tolperisone, FIG. 3
[10] = 37° C., pH 7.4, 3 mM NADPH, protein 0.5 mg/mL, LC/MS/MS, FIG. 1
[11] = primary metabolites formed by hydroxylation, FIG. 2

T1 sequence (P33261 whole entry): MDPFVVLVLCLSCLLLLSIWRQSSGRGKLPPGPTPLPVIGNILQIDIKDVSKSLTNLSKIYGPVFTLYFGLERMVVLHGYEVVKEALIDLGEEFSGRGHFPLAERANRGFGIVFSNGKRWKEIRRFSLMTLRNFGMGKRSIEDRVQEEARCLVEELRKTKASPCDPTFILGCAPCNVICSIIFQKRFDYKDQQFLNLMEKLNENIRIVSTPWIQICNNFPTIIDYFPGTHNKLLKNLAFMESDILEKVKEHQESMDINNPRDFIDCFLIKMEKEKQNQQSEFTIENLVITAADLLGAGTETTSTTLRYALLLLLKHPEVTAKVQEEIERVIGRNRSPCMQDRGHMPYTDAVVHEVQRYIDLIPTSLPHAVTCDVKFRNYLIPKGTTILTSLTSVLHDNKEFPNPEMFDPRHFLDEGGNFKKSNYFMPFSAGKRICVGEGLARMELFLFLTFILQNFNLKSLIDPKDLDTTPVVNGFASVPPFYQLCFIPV
T2 sequence (P10635 whole entry): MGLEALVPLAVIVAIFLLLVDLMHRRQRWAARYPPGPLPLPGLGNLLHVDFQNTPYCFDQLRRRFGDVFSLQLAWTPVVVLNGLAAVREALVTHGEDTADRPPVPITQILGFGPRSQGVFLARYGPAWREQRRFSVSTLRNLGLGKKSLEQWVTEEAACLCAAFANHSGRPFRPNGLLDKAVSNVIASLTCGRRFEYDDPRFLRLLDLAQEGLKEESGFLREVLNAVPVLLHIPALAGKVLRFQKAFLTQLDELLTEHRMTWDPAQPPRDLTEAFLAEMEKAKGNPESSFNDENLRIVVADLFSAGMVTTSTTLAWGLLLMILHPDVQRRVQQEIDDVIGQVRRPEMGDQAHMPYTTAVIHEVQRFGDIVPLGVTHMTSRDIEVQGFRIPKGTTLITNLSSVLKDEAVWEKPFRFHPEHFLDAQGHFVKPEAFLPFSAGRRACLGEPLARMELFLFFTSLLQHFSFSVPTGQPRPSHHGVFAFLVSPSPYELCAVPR
T7 sequence (P08684 whole entry): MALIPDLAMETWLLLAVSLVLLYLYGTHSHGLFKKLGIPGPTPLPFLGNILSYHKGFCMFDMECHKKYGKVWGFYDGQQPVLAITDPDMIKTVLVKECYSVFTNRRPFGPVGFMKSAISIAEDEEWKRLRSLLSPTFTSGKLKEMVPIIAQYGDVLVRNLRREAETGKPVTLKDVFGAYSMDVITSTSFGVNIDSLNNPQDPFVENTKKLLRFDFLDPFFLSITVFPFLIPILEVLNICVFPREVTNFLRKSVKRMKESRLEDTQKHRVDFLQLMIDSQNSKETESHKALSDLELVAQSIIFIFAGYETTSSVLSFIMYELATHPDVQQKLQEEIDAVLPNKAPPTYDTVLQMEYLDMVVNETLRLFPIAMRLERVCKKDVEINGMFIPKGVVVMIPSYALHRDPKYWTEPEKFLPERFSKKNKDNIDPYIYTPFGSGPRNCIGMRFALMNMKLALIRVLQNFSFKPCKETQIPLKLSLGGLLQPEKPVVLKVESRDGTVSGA
T6 sequence (P05181 whole entry): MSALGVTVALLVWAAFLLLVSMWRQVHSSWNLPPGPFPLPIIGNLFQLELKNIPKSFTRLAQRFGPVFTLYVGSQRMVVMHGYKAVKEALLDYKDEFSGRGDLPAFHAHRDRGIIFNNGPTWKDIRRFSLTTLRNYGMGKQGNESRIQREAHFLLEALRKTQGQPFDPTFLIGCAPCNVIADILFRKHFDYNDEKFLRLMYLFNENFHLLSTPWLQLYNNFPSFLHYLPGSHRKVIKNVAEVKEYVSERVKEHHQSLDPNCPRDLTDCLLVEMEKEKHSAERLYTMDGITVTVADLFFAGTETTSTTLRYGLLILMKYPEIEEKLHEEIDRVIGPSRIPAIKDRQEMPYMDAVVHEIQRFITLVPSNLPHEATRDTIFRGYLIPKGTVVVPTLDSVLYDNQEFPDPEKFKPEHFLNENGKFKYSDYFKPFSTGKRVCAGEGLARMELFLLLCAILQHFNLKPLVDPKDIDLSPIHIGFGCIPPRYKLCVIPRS

| Compound | factor by which enzymatic hydroxylation by CYP2C19 is retarded in comparison to tolperisone [1, 9] | factor by which enzymatic hydroxylation by CYP2D6 is retarded in comparison to tolperisone [2, 9] | enzymatic degradation (decrease in tolperisone concentration over time) by CYP2C19 [1, 10] | formation of hydroxy metabolites by CYP2C19 [1, 11] | enzymatic degradation (decrease in tolperisone concentration over time) by CYP2D6 [2, 10] | formation of hydroxy metabolites by CYP2D6 [2, 11] | contribution to biological degradation by CYP1A1 [3] | contribution to biological degradation by CYP1A2 [4] | contribution to biological degradation by CYP2C8 [5] | contribution to biological degradation by CYP2E1 [6] | contribution to biological degradation by CYP3A4 [7] | fraction of the administered dose found unchanged in the blood [8] |
| --- | --- | --- | --- | --- | --- | --- | --- | --- | --- | --- | --- | --- |
| [2H]c1c([2H])c(C([2H])([2H])[2H])c([2H])c([2H])c1C(=O)C(C)CN1CCCCC1 (stereo not drawn) [I, 1-[4-(trideuteromethyl)tetradeuterophenyl]-2-methyl-3-piperidin-1-yl-1-propanone] | 10 | 10 | – | – | – | – | – | – | – | – | – | – |
| Cc1ccc(C(=O)C(C)CN2CCCCC2)cc1 (stereo not drawn) [tolperisone] | – | – | transformed above all | to the same extent as the substrate is degraded | transformed above all | to the same extent as the substrate is degraded | contribute at most insignificantly | contribute at most insignificantly | contribute at most insignificantly | contribute at most insignificantly | contribute at most insignificantly | one-fifth |

From patent US7307091B2, “Deuterated 3-piperidinopropiophenone and medicaments containing said compounds” (BDD Berolina Drug Development GmbH, priority 2001, dated 2007)
